Assay results published in ChEMBL document CHEMBL2434967, “Synthesis, characterization, antiparasitic and cytotoxic evaluation of thioureas conjugated to polyamine scaffolds” (Eur J Med Chem, 2013).

Legend:
[1] = Inhibition of beta-hematin formation after overnight incubation by NP-40 detergent-mediated spectroscopic analysis; type: functional
Plasmodium falciparum [2] = assay: Antiplasmodial activity against chloroquine-sensitive erythrocyte stages of Plasmodium falciparum NF54 by parasite lactate dehydrogenase assay; type: functional, organism-based
[3] = Cytotoxicity against human WHCO1 cells after 48 hrs by MTT assay; type: functional, cell-based; conditions: WHCO1, 48 h
Plasmodium falciparum [4] = assay: Antiplasmodial activity against chloroquine-resistant erythrocyte stages of Plasmodium falciparum Dd2 by parasite lactate dehydrogenase assay; type: functional, organism-based
Trichomonas vaginalis = assay: Antimicrobial activity against Trichomonas vaginalis G3 assessed as growth inhibition at 10 uM after 24 hrs by hemocytometry; type: functional; conditions: G3, 24 h, read-out: GI
Plasmodium falciparum [5] = assay: Resistance index, ratio of IC50 for chloroquine-resistant Plasmodium falciparum Dd2 to IC50 for chloroquine-sensitive Plasmodium falciparum NF54; type: functional

| Structure (SMILES) | IC50 [1] [nM] | IC50 (Plasmodium falciparum [2]) [nM] | IC50 [3] [nM] | IC50 (Plasmodium falciparum [4]) [nM] | inhibition of growth at 10 µM (Trichomonas vaginalis) [%] | Ratio IC50 (Plasmodium falciparum [5]) |
| --- | --- | --- | --- | --- | --- | --- |
| CCCNC(=S)NCCCNc1ccnc2cc(Cl)ccc12 | 58200 | 160 | 43800 | 260 | 34.9 | 1.6 |
| S=C(NCCCNC(=S)NCCCNc1ccnc2cc(Cl)ccc12)NCCCNc1ccnc2cc(Cl)ccc12 | 6520 | 340 | 38400 | 230 | 55.9 | 0.7 |
| S=C(NCCCNc1ccnc2cc(Cl)ccc12)NCCN(CCNC(=S)NCCCNc1ccnc2cc(Cl)ccc12)CCNC(=S)NCCCNc1ccnc2cc(Cl)ccc12 | 4480 | 90 | 6210 | 520 | 51.4 | 5.8 |
| S=C(NCCCNc1ccnc2cc(Cl)ccc12)NCCCN(CCCCN(CCCNC(=S)NCCCNc1ccnc2cc(Cl)ccc12)CCCNC(=S)NCCCNc1ccnc2cc(Cl)ccc12)CCCNC(=S)NCCCNc1ccnc2cc(Cl)ccc12 | < 4500 | 200 | 990 | 510 | 58.7 | 2.5 |
| CCN(CC)CCCC(C)Nc1ccnc2cc(Cl)ccc12 (stereo unspecified) [CHLOROQUINE] | 73800 | – | – | – | – | – |
| Cc1ncc([N+](=O)[O-])n1CCO [METRONIDAZOLE] | – | – | – | – | 100 | – |
